Laboratory results reported in the supplement of paper PMC12463676, “Small-molecule dissolution of stress granules by redox modulation benefits ALS models” (Nature Chemical Biology, 2025).

These targets were tested with NC(=O)CCCCC1CCSS1 [lipoamide] (assay: thermal stability z-score vs DMSO; higher = more thermally stabilized by treatment). Details: HeLa; lipoamide concentration 100 µM; arsenate co-treatment: 1 mM arsenate 1 h.
Procedure: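 Cellular thermal proteome profiling in HeLa cells. Cells were treated with 100 µM lipoamide for 1 h, with or without 1 mM arsenate for a further 1 h, then heated to ten temperatures (37-66.3 °C), and soluble protein was quantified by TMT mass spectrometry relative to 0.1% DMSO controls. The thermal stability score (sum of log2 fold changes minus the abundance score) was transformed to a z-score; mean of n = 3 experiments.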
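Also: each temperature applied for 3 min, abundance score taken as mean log2 fold change at the two lowest temperatures, z-score obtained by mean subtraction and division by SD.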

Chain of UniProt Q9H857 (Q9H857 whole entry): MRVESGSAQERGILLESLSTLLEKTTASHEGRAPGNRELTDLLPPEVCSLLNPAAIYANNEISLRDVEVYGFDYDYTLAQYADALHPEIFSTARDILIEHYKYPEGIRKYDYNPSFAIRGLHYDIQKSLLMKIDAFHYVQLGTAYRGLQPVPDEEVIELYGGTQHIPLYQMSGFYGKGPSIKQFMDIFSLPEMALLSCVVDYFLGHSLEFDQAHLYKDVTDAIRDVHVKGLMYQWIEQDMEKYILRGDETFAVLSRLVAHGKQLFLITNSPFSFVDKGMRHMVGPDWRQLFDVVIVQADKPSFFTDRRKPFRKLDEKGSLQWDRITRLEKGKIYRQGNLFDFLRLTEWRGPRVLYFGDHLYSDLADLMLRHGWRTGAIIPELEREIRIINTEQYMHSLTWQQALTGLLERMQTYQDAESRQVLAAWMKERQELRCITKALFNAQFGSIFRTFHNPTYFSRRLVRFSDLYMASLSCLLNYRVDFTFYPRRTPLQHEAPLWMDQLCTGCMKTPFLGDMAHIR
Chain of UniProt Q05655 (Q05655 whole entry, looked up): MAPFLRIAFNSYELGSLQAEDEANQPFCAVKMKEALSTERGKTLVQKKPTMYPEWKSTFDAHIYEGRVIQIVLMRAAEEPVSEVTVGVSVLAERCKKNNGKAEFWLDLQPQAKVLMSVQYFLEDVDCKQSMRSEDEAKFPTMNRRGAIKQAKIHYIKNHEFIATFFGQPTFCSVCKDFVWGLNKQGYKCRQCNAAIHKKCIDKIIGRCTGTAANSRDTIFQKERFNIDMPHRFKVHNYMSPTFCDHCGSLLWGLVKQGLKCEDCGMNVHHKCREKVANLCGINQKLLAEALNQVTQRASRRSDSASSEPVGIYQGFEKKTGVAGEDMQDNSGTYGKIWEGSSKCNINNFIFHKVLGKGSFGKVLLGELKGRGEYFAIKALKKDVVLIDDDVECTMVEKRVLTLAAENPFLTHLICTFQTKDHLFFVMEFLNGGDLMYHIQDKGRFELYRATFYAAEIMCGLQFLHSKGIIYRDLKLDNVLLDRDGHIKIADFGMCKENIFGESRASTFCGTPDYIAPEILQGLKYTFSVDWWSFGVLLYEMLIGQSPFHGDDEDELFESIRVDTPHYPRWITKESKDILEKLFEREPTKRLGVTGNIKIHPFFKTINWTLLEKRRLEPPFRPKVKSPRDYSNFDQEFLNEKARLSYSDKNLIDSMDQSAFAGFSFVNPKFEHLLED
Chain of UniProt O14810 (O14810 whole entry): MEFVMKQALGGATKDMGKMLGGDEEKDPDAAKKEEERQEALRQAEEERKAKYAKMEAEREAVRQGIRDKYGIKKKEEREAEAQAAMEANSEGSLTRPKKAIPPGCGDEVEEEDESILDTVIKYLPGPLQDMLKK
Chain of UniProt Q8WXE0 (Q8WXE0 whole entry): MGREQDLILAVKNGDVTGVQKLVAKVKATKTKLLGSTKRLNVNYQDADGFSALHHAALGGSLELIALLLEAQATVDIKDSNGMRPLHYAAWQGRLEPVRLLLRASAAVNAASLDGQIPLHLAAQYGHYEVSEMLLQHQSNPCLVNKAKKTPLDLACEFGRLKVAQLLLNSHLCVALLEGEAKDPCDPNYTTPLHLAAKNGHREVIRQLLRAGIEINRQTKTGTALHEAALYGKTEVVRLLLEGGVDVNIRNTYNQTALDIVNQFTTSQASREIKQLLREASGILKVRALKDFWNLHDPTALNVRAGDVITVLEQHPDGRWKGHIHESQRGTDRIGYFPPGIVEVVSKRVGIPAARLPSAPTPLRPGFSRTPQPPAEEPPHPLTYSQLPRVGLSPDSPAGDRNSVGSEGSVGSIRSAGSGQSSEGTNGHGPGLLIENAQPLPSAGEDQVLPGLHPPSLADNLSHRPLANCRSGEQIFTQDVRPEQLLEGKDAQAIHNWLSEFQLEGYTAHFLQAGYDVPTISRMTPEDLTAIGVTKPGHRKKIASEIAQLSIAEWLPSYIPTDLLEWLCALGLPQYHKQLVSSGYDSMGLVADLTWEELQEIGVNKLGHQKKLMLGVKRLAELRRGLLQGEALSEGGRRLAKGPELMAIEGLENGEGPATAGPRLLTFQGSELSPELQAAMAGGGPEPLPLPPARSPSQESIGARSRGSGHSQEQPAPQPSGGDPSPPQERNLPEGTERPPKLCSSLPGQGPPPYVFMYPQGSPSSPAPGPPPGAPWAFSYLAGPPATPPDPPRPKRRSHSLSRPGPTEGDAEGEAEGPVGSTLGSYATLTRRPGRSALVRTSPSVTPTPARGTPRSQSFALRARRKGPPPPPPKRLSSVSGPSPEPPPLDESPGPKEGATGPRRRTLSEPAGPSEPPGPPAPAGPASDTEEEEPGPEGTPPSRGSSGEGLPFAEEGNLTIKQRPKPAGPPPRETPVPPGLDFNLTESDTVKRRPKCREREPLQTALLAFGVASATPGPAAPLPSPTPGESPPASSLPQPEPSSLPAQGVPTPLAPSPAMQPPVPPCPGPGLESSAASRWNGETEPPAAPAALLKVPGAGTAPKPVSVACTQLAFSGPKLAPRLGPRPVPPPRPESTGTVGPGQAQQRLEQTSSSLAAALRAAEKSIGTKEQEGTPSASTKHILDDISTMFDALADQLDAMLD
Chain of UniProt O75695 (O75695 whole entry): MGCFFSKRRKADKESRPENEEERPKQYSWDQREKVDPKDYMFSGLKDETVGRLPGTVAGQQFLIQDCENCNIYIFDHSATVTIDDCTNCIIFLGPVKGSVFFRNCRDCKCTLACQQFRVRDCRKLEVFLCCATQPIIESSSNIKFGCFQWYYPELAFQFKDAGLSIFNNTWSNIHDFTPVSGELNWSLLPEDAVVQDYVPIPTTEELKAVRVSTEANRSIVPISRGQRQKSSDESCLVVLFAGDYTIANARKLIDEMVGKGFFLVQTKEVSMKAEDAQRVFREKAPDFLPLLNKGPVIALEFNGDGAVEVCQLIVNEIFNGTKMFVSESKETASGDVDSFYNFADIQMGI
Chain of UniProt P14866 (P14866 whole entry): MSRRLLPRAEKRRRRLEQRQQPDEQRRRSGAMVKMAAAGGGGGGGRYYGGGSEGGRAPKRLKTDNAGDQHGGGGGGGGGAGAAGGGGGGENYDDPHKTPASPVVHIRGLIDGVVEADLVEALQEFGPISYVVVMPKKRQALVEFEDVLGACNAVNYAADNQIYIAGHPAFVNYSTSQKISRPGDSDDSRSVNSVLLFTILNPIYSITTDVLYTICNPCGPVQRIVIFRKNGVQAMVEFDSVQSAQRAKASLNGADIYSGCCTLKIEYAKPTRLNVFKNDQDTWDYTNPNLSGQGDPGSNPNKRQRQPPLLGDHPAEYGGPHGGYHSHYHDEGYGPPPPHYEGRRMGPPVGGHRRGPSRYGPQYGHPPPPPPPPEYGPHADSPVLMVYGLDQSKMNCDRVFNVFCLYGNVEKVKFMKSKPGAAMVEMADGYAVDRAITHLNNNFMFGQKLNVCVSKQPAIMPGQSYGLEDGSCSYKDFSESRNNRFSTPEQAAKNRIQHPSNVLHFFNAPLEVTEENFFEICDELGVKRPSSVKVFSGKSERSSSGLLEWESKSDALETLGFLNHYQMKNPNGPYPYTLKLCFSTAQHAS
Chain of UniProt Q96G25 (Q96G25 whole entry): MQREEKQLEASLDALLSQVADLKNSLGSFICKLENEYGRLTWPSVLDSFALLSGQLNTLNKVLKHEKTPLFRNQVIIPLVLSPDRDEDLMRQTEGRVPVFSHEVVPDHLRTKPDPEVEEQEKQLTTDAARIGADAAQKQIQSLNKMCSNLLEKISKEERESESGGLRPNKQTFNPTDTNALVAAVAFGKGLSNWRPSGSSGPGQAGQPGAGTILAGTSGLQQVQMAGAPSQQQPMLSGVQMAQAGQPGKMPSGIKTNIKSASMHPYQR
Chain of UniProt Q8NHP6 (Q8NHP6 whole entry): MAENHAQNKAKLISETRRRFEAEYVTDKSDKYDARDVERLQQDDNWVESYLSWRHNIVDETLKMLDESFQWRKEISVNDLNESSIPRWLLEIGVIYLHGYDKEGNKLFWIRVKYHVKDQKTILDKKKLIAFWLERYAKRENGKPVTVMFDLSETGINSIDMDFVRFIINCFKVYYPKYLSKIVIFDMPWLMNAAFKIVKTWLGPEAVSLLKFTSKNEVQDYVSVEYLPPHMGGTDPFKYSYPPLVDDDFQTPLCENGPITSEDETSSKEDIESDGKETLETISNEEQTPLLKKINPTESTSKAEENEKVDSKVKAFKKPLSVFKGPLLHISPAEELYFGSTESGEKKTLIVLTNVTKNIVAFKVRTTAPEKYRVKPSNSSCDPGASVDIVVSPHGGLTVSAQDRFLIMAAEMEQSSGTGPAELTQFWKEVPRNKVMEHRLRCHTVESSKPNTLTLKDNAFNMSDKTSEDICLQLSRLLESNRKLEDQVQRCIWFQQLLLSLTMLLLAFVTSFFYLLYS
Chain of UniProt Q9Y3L5 (Q9Y3L5 whole entry): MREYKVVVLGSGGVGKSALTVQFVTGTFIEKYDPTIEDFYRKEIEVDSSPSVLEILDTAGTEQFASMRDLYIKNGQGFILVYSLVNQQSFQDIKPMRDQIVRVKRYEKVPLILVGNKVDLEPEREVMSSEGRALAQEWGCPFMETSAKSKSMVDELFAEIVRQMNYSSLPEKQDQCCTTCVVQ
Chain of UniProt O75071 (O75071 whole entry): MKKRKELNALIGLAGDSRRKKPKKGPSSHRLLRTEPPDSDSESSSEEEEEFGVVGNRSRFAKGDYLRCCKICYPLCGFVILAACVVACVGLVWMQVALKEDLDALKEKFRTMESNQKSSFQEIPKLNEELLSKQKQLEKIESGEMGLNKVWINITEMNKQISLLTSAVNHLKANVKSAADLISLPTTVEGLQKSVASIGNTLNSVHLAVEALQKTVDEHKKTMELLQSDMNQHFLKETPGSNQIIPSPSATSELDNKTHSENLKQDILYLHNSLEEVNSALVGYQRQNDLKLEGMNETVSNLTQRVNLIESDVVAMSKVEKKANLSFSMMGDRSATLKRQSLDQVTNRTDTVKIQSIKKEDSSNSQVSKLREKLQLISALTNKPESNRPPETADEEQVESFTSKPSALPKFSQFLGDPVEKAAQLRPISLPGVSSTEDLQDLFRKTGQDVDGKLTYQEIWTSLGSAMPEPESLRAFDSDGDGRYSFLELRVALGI

| Target | thermal stability z-score |
| --- | --- |
| NT5DC1 (UniProt Q5TFE4) | 0.0662 |
| MOSPD2 (UniProt Q8NHP6) | -0.58 |
| SLC16A3 (UniProt O15427) | 0.645 |
| MED8 (UniProt Q96G25) | 0.954 |
| SNX1 (UniProt Q13596) | 0.0174 |
| MIA3 (UniProt Q5JRA6) | -3.32 |
| XRCC1 (UniProt P18887) | -0.0745 |
| HNRNPL (UniProt P14866) | 0.204 |
| JAK1 (UniProt P23458) | -0.359 |
| HTATSF1 (UniProt O43719) | 0.386 |
| SNX4 (UniProt O95219) | -0.688 |
| PRKCD (UniProt Q05655) | -0.0378 |
| CASKIN2 (UniProt Q8WXE0) | -0.798 |
| GSTCD (UniProt Q8NEC7) | 0.682 |
| DYM (UniProt Q7RTS9) | 0.487 |
| FAM134A (UniProt Q8NC44) | 0.119 |
| CLU (UniProt P10909) | -1.81 |
| IL27RA (UniProt Q6UWB1) | -0.395 |

| Target | thermal stability z-score |
| --- | --- |
| RRP15 (UniProt Q9Y3B9) | -0.279 |
| ATG3 (UniProt Q9NT62) | 0.381 |
| ACTR10 (UniProt Q9NZ32) | -0.106 |
| EFCAB14 (UniProt O75071) | -0.971 |
| FAM8A1 (UniProt Q9UBU6) | -0.425 |
| RAP2C (UniProt Q9Y3L5) | 1.35 |
| GPATCH2 (UniProt Q9NW75) | -0.115 |
| RP2 (UniProt O75695) | 0.38 |
| VTI1B (UniProt Q9UEU0) | -0.0224 |
| CPLX1 (UniProt O14810) | 0.844 |
| TSNAX (UniProt Q99598) | -0.075 |
| STAT1 (UniProt P42224) | -0.65 |
| UFM1 (UniProt P61960) | 0.193 |
| CAMSAP1 (UniProt Q5T5Y3) | 0.0305 |
| RPL24 (UniProt P83731) | 0.228 |
| NT5DC2 (UniProt Q9H857) | 0.0403 |
| HAUS4 (UniProt Q9H6D7) | -0.0376 |
| NBAS (UniProt A2RRP1) | 0.00568 |

Same assay, conditions: HeLa; lipoamide concentration 100 µM; arsenate co-treatment: none

| Target | thermal stability z-score |
| --- | --- |
| C19ORF53 (UniProt Q9UNZ5) | 0.508 |
| C1S (UniProt P09871) | -0.147 |
| JTB (UniProt O76095) | 0.0713 |
| TTC21B (UniProt Q7Z4L5) | -0.505 |
| ABCD1 (UniProt P33897) | -0.422 |
| NKRF (UniProt O15226) | 0.00359 |
| RPS18 (UniProt P62269) | 0.214 |
| MST1R (UniProt Q04912) | 0.0193 |
| IGF2BP1 (UniProt Q9NZI8) | 0.286 |
| TNIP2 (UniProt Q8NFZ5) | 0.193 |
| PARVB (UniProt Q9HBI1) | 0.319 |
| RPP38 (UniProt P78345) | 0.146 |
| NRAS (UniProt P01111) | -0.21 |
| DIABLO (UniProt Q9NR28) | 0.495 |
| AKAP11 (UniProt Q9UKA4) | 0.0515 |
| FAM21A (UniProt Q641Q2) | -0.365 |
| SART1 (UniProt O43290) | 0.374 |
| PIAS4 (UniProt Q8N2W9) | 0.2 |
| ATN1 (UniProt P54259) | 0.784 |
| DPM1 (UniProt O60762) | 0.429 |
| SPCS2 (UniProt Q15005) | -0.411 |
| EVPL (UniProt Q92817) | 0.134 |
| CCT8 (UniProt P50990) | -0.0937 |
| JMJD1C (UniProt Q15652) | -0.396 |

| Target | thermal stability z-score |
| --- | --- |
| ALDOC (UniProt P09972) | -0.526 |
| SCAMP4 (UniProt Q969E2) | 0.377 |
| ULK3 (UniProt Q6PHR2) | -0.197 |
| TMEM186 (UniProt Q96B77) | -0.895 |
| NIPA2 (UniProt Q8N8Q9) | 0.101 |
| MTDH (UniProt Q86UE4) | -0.503 |
| C1ORF123 (UniProt Q9NWV4) | -0.409 |
| TPPP (UniProt O94811) | 0.123 |
| CPNE8 (UniProt Q86YQ8) | 1.11 |
| STAT5A (UniProt P42229) | 0.314 |
| PRKCI (UniProt P41743) | -0.312 |
| NT5DC1 (UniProt Q5TFE4) | -0.687 |
| MOSPD2 (UniProt Q8NHP6) | -0.383 |
| SLC16A3 (UniProt O15427) | 0.712 |
| MED8 (UniProt Q96G25) | 0.843 |
| SNX1 (UniProt Q13596) | -0.29 |
| MIA3 (UniProt Q5JRA6) | -2.72 |
| XRCC1 (UniProt P18887) | 0.0492 |
| HNRNPL (UniProt P14866) | 0.05 |
| JAK1 (UniProt P23458) | 0.296 |
| HTATSF1 (UniProt O43719) | 0.479 |
| SNX4 (UniProt O95219) | -0.344 |
| PRKCD (UniProt Q05655) | 0.235 |
| CASKIN2 (UniProt Q8WXE0) | 0.441 |

| Target | thermal stability z-score |
| --- | --- |
| GSTCD (UniProt Q8NEC7) | 0.492 |
| DYM (UniProt Q7RTS9) | -0.0128 |
| FAM134A (UniProt Q8NC44) | -0.141 |
| CLU (UniProt P10909) | -2.08 |
| IL27RA (UniProt Q6UWB1) | 0.44 |
| RRP15 (UniProt Q9Y3B9) | -0.438 |
| ATG3 (UniProt Q9NT62) | 0.021 |
| ACTR10 (UniProt Q9NZ32) | 0.0788 |
| EFCAB14 (UniProt O75071) | -1.74 |
| FAM8A1 (UniProt Q9UBU6) | -0.579 |
| RAP2C (UniProt Q9Y3L5) | 0.676 |
| GPATCH2 (UniProt Q9NW75) | 0.00549 |
| RP2 (UniProt O75695) | 1.49 |
| VTI1B (UniProt Q9UEU0) | -0.376 |
| CPLX1 (UniProt O14810) | 1.45 |
| TSNAX (UniProt Q99598) | -0.0638 |
| STAT1 (UniProt P42224) | -0.206 |
| UFM1 (UniProt P61960) | 0.534 |
| CAMSAP1 (UniProt Q5T5Y3) | -0.371 |
| RPL24 (UniProt P83731) | -0.084 |
| NT5DC2 (UniProt Q9H857) | -0.251 |
| HAUS4 (UniProt Q9H6D7) | 0.0952 |
| NBAS (UniProt A2RRP1) | 0.0731 |
